# Assay results taken from US20060046972A1, “Cytotoxic nucleoside analog compound 003 for treating cancer” (Parker Hughes Institute, priority 2004, published 2006).
# Assays:
# [1] = Acute toxicity of intraperitoneal bolus doses in CD-1 mice; assay type: in vivo; settings: female, CD-1, mouse, in vivo, ip; single i.p. bolus; not reached at highest dose
# Procedure: 1.2.8 Animals Female CD-1 mice (Body weight: ˜25 g; Age: 7 week old) were purchased, from Charles River Laboratories (Willmington, Mass., USA). MMTV Neu-mice [FVB/N-TgN(MMTV neu)202MUL; Jackson Laboratory, Bar Harbor, Me.] were bred to produce multiple litters. All mice were housed in microisolator cages (Lab Products, Inc., Maywood, N.Y., USA) containing autoclaved bedding in a controlled specific pathogen-free (SPF) environment (12-h light/12-h dark photoperiod, 22±1° C., 60±10% relative humidity), which is fully accredited by the USDA (United States Department of Agriculture). Adult male Lewis rats (Body weight: ˜160 g) were obtained from the specific pathogen-free (SPF) breeding facilities of Harlan Sprague Dawley (Indianapolis, Id., USA) at 14 weeks of age. All husbandry and experimental contact made with the mice and rats maintained SPF conditions. The rats were kept in microisolater cages (Allentown Caging Equipment Co., Inc., Allentown, N.J., USA) containing autoclaved food, water, and bedding. Animal studies were approved by Parker Hughes Institute Animal Care and Use Committee and all animal care procedures 1.5 conformed to the Guide for the Care and Use of Laboratory Animals (National Research Council, National Academy Press, Washington D.C. 1996, USA).
# The toxicity profile of Compound 003 in CD-1 mice and Lewis rats was examined, using standard procedures as previously reported for other experimental drugs (Uckun, et al., 2003, Arzneimittelforschun. 53:357; Uckun, et al., 2002, Clin Cancer Res. 8: 1224; Uckun, et al., 2002, Antimicrob Agents Chemother. 46:3428). In brief, mice and rats were treated with intraperitoneal injections of vehicle or Compound 003 at multiple dose levels. Compound 003 was administered as a 0.2 mL (for mice) or 0.5 mL (for rats) bolus injection containing 10% DMSO as a vehicle. Animals were allowed free access to autoclaved standard pellet food and tap water throughout the experiments and monitored daily for morbidity and mortality. Animals were electively sacrificed on day 7 or day 30 to determine the toxicity of Compound 003 by examining their blood chemistry profiles, blood counts, and evaluating multiple organs for the presence of toxic lesions. Blood was collected by intracardiac puncture following anesthesia with ketamine:xylazine and immediately heparinized. The blood chemistry profiles were examined using a Synchron CX5CE Chemical Analyzer (Beckman Instruments, Inc., Fullerton, Calif., USA). Blood counts (red blood cells [RBC], white blood cells [WBC] and platelets [Plt]) were determined using a HESKA Vet ABC-Diff Hematology Analyzer (HESKA Corporation, Fort Collins, Colo., USA). Absolute neutrophil counts (ANC) and absolute lymphocyte counts (ALC) were calculated from WBC values after determining the percentages of neutrophils and lymphocytes by a manual differential count. At the time of necropsy, […] from mice (bone, bone marrow, brain, cecum, heart, kidney, large intestine, liver, lung, lymph node, ovary, pancreas, skeletal muscle, skin, small intestine, spleen, stomach, thymus, thyroid gland, urinary bladder, and uterus, as available) and 21 different tissues from rats (bone, bone marrow, brain, coagulating gland, epididymis, heart, large intestine, small intestine, kidney, liver, lung, pancreas, peripheral nerve/spinal nerve, skeletal muscle, skin, spinal cord, spleen, stomach, testes, thymus, urinary bladder) were collected within 15 minutes after sacrifice, gross pathological findings were documented, organs were preserved in 10% neutral phosphate buffered formalin, and processed for histopathological examination. For histopathologic studies, formalin fixed tissues were dehydrated and embedded in paraffin by routine methods. Glass slides with affixed 4-5 micron tissue sections were prepared and stained with Hemotoxylin and Eosin (H&E). […]
# [2] = system: BT20 breast cancer cell line; experiment: Intracellular metabolism of Compound 003 to ala-AZT-MP, BT20; assay type: in vitro ADME, human; settings: 25 μM Compound 003
# Source text: Intracellular metabolism of Compound 003 was studied in CEM T-lineage lymphoma cell line, BT20 breast cancer cell line, T98 glioblastoma cell line, and Nalm-6 B-lineage leukemia cell line. CEM and Nalm6 cells were maintained in RPMI supplemented with 10% fetal bovine serum, and 1% penicillin/streptomycin. BT20 and T98 cells w.ere cultured in a medium composed of MEM, 10% fetal bovine serum, 0.1-mM of nonessential amino acids and Earles salts, and 1% penicillin/streptomycin. CEM and Nalm6 cells at a density of 10^6 cells per ml were utilized in the drug metabolism study. BT20 and T98 cells were seeded in 6-cm petri-dishes at 4 million cells and 2 million cells per plate, respectively, the day before the experiment. Either one plate of adherent cells or 10 million non-adherent cells was utilized at each time point. Cells were incubated with various concentrations of the compounds up to 24 hrs at 37° C. After incubation, cells were washed 2 times with ice-cold PBS, and extracted by addition of 0.5-1 ml of 60% methanol. Cell lysates were kept at −20° C. overnight, after which lysates were centrifuged at 15000×g for 10 minutes to remove the cell debris. One hundred microliters of these lysates were injected directly to HPLC. For half-life study, cells at the same density as in drug metabolism study were treated with 100 μM Compound 003 for 2 hrs, after which cells were washed 2 times with ice-cold PBS, and resuspended in warm media until the time they were harvested. For uptake and efflux study, cells were seeded at 2 million cells in 2 ml of media. […] With efflux experiments, cells 1×10^6/mL (the same density as in the uptake study) were incubated with 100 μM Compound 003 for 1 hr, washed 2 times with ice-cold PBS, and resuspended with culture medium without drug, and the metabolite efflux from cells to the medium was measured after 6 hr of incubation. […]
smiles,measurement,setting,value
"COC(=O)C(C)NP(=O)(OCC1OC(n2cc(C)c(=O)[nH]c2=O)CC1N=[N+]=[N-])Oc1ccc(OC)cc1 (centres unmarked) [Compound 003, 3′-azidothymidine 5′-[p-methoxyphenylmethoxyalaninyl phosphate]]",LD50,[1],> 80 mg/kg
same,time to peak intracellular metabolite concentration,[2],within an hour
